Reference: patent publication US12077503B2, “Substituted cyclic amides and their use as herbicides” (FMC CORPORATION, priority 2015, dated 2024)

Columns and labels:
Assay type in all cases: in vivo
[1] = test system: ivy-leaved morning glory (Ipomoea hederacea); test: Test G Pre-Emergence Protocol; settings: Ipomoea, pre-emergence, 312 h, evaluated after 13 days; for pest or weed control at 15.625 g/ha: 15.625 g ai/ha, read-out: Morning-glory, Ivy-leaved damage rating (100=total damage to plant; 0=no damage to plant); for pest or weed control at 62.5 g/ha: 62.5 g ai/ha, 100=total damage to plant, 0=no damage to plant, read-out: plant damage rating, Morningglory, Ivy-leaved; for pest or weed control at 250 g/ha: 250 g ai/ha, read-out: Morningglory, Ivy-leaved damage rating (100=total damage to plant; 0=no damage to plant)
Procedure, shortened: (§1)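 Visual injury (0–100) at day 13 after a single pre-emergence spray. Rates: 15.625, 62.5, 250 g/ha in acetone–water 50:50 with 0.5% Tween 20. Growth conditions: 24/16° C, 14 h light, 65% humidity.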

[2] = test system: redroot pigweed (Amaranthus retroflexus); test: Test G Pre-Emergence Protocol; settings: Amaranthus retroflexus, pre-emergence, 312 h, evaluated after 13 days; for pest or weed control at 15.625 g/ha: 15.625 g ai/ha; for pest or weed control at 15.625 g/ha / pest or weed control at 250 g/ha: read-out: Pigweed, Redroot damage rating (100=total damage to plant; 0=no damage to plant); for pest or weed control at 62.5 g/ha: 62.5 g ai/ha, 100=total damage to plant, 0=no damage to plant, read-out: plant damage rating, Pigweed, Redroot; for pest or weed control at 250 g/ha: 250 g ai/ha
Procedure, shortened: as §1

[3] = test system: barnyardgrass (Echinochloa crus-galli); test: Test G Pre-Emergence Protocol; settings: Echinochloa crus-galli, pre-emergence, 312 h, evaluated after 13 days; for pest or weed control at 15.625 g/ha: 15.625 g ai/ha, read-out: Barnyard grass damage rating (100=total damage to plant; 0=no damage to plant); for pest or weed control at 62.5 g/ha: 62.5 g ai/ha, 100=total damage to plant, 0=no damage to plant, read-out: plant damage rating, Barnyardgrass; for pest or weed control at 250 g/ha: 250 g ai/ha, read-out: Barnyardgrass damage rating (100=total damage to plant; 0=no damage to plant)
Procedure, shortened: as §1

[4] = test system: velvetleaf (Abutilon theophrasti); test: Test G Pre-Emergence Protocol; settings: Abutilon theophrasti, pre-emergence, 312 h, evaluated after 13 days; for pest or weed control at 15.625 g/ha: 15.625 g ai/ha; for pest or weed control at 15.625 g/ha / pest or weed control at 250 g/ha: read-out: Velvetleaf damage rating (100=total damage to plant; 0=no damage to plant); for pest or weed control at 62.5 g/ha: 62.5 g ai/ha, 100=total damage to plant, 0=no damage to plant, read-out: plant damage rating, Velvetleaf; for pest or weed control at 250 g/ha: 250 g ai/ha
Procedure, shortened: as §1

corn (Zea mays) [5] = test: Test G Pre-Emergence Protocol; settings: Zea mays, pre-emergence, 312 h, evaluated after 13 days; for plant injury at 15.625 g/ha: 15.625 g ai/ha; for plant injury at 15.625 g/ha / plant injury at 250 g/ha: read-out: Corn damage rating (100=total damage to plant; 0=no damage to plant); for plant injury at 62.5 g/ha: 62.5 g ai/ha, 100=total damage to plant, 0=no damage to plant, read-out: plant damage rating, Corn; for plant injury at 250 g/ha: 250 g ai/ha
Procedure, shortened: as §1

[6] = test system: giant foxtail (Setaria faberi); test: Test G Pre-Emergence Protocol; settings: Setaria faberi, pre-emergence, 312 h, evaluated after 13 days; for pest or weed control at 15.625 g/ha: 15.625 g ai/ha; for pest or weed control at 15.625 g/ha / pest or weed control at 250 g/ha: read-out: Foxtail, Giant damage rating (100=total damage to plant; 0=no damage to plant); for pest or weed control at 62.5 g/ha: 62.5 g ai/ha, 100=total damage to plant, 0=no damage to plant, read-out: plant damage rating, Foxtail, Giant; for pest or weed control at 250 g/ha: 250 g ai/ha
Procedure, shortened: as §1

[7] = test system: ivy-leaved morning glory (Ipomoea hederacea); test: Test G Post-Emergence Protocol; settings: Ipomoea, post-emergence, 312 h; for pest or weed control at 15.625 g/ha: 15.625 g ai/ha, evaluated after 13 days (100=total damage to plant; 0=no damage to plant), read-out: Morningglory, Ivy-leaved damage rating; for pest or weed control at 62.5 g/ha: 62.5 g ai/ha, read-out: Morningglory, Ivy-leaved damage rating (100=total damage to plant; 0=no damage to plant); for pest or weed control at 62.5 g/ha / pest or weed control at 250 g/ha: evaluated after 13 days; for pest or weed control at 250 g/ha: 250 g ai/ha, read-out: damage to plant, Morningglory, Ivy-leaved (100=total damage to plant; 0=no damage to plant)
Procedure, shortened: (§2)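 Damage was rated 13 days after treatment from 0 (none) to 100 (plant killed). Compound was applied as a spray at 15.625, 62.5 or 250 g/ha in 50:50 acetone/water containing 0.5% Tween 20, onto 8-day-old potted plants kept in a glasshouse (24/16 °C, 14 h light, 65% humidity).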

[8] = test system: redroot pigweed (Amaranthus retroflexus); test: Test G Post-Emergence Protocol; settings: Amaranthus retroflexus, post-emergence, 312 h; for pest or weed control at 15.625 g/ha: 15.625 g ai/ha, evaluated after 13 days (100=total damage to plant; 0=no damage to plant), read-out: Pigweed, Redroot damage rating; for pest or weed control at 62.5 g/ha: 62.5 g ai/ha, read-out: Pigweed, Redroot damage rating (100=total damage to plant; 0=no damage to plant); for pest or weed control at 62.5 g/ha / pest or weed control at 250 g/ha: evaluated after 13 days; for pest or weed control at 250 g/ha: 250 g ai/ha, read-out: damage to plant, Pigweed, Redroot (100=total damage to plant; 0=no damage to plant)
Procedure, shortened: as §2

[9] = test system: barnyardgrass (Echinochloa crus-galli); test: Test G Post-Emergence Protocol; settings: Echinochloa crus-galli, post-emergence, 312 h; for pest or weed control at 15.625 g/ha: 15.625 g ai/ha, evaluated after 13 days (100=total damage to plant; 0=no damage to plant), read-out: Barnyardgrass damage rating; for pest or weed control at 62.5 g/ha: 62.5 g ai/ha, read-out: Barnyardgrass damage rating (100=total damage to plant; 0=no damage to plant); for pest or weed control at 62.5 g/ha / pest or weed control at 250 g/ha: evaluated after 13 days; for pest or weed control at 250 g/ha: 250 g ai/ha, read-out: damage to plant, Barnyardgrass (100=total damage to plant; 0=no damage to plant)
Procedure, shortened: as §2

[10] = test system: velvetleaf (Abutilon theophrasti); test: Test G Post-Emergence Protocol; settings: Abutilon theophrasti, post-emergence, 312 h; for pest or weed control at 15.625 g/ha: 15.625 g ai/ha, evaluated after 13 days (100=total damage to plant; 0=no damage to plant), read-out: Velvetleaf damage rating; for pest or weed control at 62.5 g/ha: 62.5 g ai/ha, read-out: Velvetleaf damage rating (100=total damage to plant; 0=no damage to plant); for pest or weed control at 62.5 g/ha / pest or weed control at 250 g/ha: evaluated after 13 days; for pest or weed control at 250 g/ha: 250 g ai/ha, read-out: damage to plant, Velvetleaf (100=total damage to plant; 0=no damage to plant)
Procedure, shortened: as §2

corn (Zea mays) [11] = test: Test G Post-Emergence Protocol; settings: Zea mays, post-emergence, 312 h; for plant injury at 15.625 g/ha: 15.625 g ai/ha, evaluated after 13 days (100=total damage to plant; 0=no damage to plant), read-out: Corn damage rating; for plant injury at 62.5 g/ha: 62.5 g ai/ha, read-out: Corn damage rating (100=total damage to plant; 0=no damage to plant); for plant injury at 62.5 g/ha / plant injury at 250 g/ha: evaluated after 13 days; for plant injury at 250 g/ha: 250 g ai/ha, read-out: damage to plant, Corn (100=total damage to plant; 0=no damage to plant)
Procedure, shortened: as §2

[12] = test system: giant foxtail (Setaria faberi); test: Test G Post-Emergence Protocol; settings: Setaria faberi, post-emergence, 312 h; for pest or weed control at 15.625 g/ha: 15.625 g ai/ha, evaluated after 13 days (100=total damage to plant; 0=no damage to plant), read-out: Foxtail, Giant damage rating; for pest or weed control at 62.5 g/ha: 62.5 g ai/ha, read-out: Foxtail, Giant damage rating (100=total damage to plant; 0=no damage to plant); for pest or weed control at 62.5 g/ha / pest or weed control at 250 g/ha: evaluated after 13 days; for pest or weed control at 250 g/ha: 250 g ai/ha, read-out: damage to plant, Foxtail, Giant (100=total damage to plant; 0=no damage to plant)
Procedure, shortened: as §2

SMILES | pest or weed control at 15.625 g/ha [1] | pest or weed control at 62.5 g/ha [1] | pest or weed control at 250 g/ha [1] | pest or weed control at 15.625 g/ha [2] | pest or weed control at 62.5 g/ha [2] | pest or weed control at 250 g/ha [2] | pest or weed control at 15.625 g/ha [3] | pest or weed control at 62.5 g/ha [3] | pest or weed control at 250 g/ha [3] | pest or weed control at 15.625 g/ha [4] | pest or weed control at 62.5 g/ha [4] | pest or weed control at 250 g/ha [4] | plant injury at 15.625 g/ha (corn (Zea mays) [5]) | plant injury at 62.5 g/ha (corn (Zea mays) [5]) | plant injury at 250 g/ha (corn (Zea mays) [5]) | pest or weed control at 15.625 g/ha [6] | pest or weed control at 62.5 g/ha [6] | pest or weed control at 250 g/ha [6] | pest or weed control at 15.625 g/ha [7] | pest or weed control at 62.5 g/ha [7] | further results
Cc1cccnc1NC(=O)C1C(=O)N(C)CC1c1ccc(C(F)(F)F)cc1 (stereo not drawn) [Compound 1437] | 0% | 0% | 0% | 0% | 0% | 0% | 0% | 0% | 0% | 0% | 0% | 0% | 0% | 0% | 0% | 0% | 0% | 0% | 0% | 0% | pest or weed control at 250 g/ha [7]: 0%; pest or weed control at 15.625 g/ha [8]: 0%; pest or weed control at 62.5 g/ha [8]: 0%; pest or weed control at 250 g/ha [8]: 0%; pest or weed control at 15.625 g/ha [9]: 0%; pest or weed control at 62.5 g/ha [9]: 0%; pest or weed control at 250 g/ha [9]: 0%; pest or weed control at 15.625 g/ha [10]: 0%; pest or weed control at 62.5 g/ha [10]: 0%; pest or weed control at 250 g/ha [10]: 0%; plant injury at 15.625 g/ha (corn (Zea mays) [11]): 0%; plant injury at 62.5 g/ha (corn (Zea mays) [11]): 0%; plant injury at 250 g/ha (corn (Zea mays) [11]): 0%; pest or weed control at 15.625 g/ha [12]: 0%; pest or weed control at 62.5 g/ha [12]: 0%; pest or weed control at 250 g/ha [12]: 0%
CN1C[C@@H](c2ccc(C(F)(F)F)cc2)[C@H](C(=O)Nc2cccc(F)n2)C1=O [Compound 1489] | 0% | 0% | 0% | 0% | 0% | 100% | 0% | 0% | 0% | 0% | 0% | 0% | 0% | 0% | 0% | 0% | 0% | 0% | 0% | 0% | pest or weed control at 250 g/ha [7]: 0%; pest or weed control at 15.625 g/ha [8]: 0%; pest or weed control at 62.5 g/ha [8]: 0%; pest or weed control at 250 g/ha [8]: 10%; pest or weed control at 15.625 g/ha [9]: 0%; pest or weed control at 62.5 g/ha [9]: 0%; pest or weed control at 250 g/ha [9]: 30%; pest or weed control at 15.625 g/ha [10]: 0%; pest or weed control at 62.5 g/ha [10]: 0%; pest or weed control at 250 g/ha [10]: 0%; plant injury at 15.625 g/ha (corn (Zea mays) [11]): 10%; plant injury at 62.5 g/ha (corn (Zea mays) [11]): 10%; plant injury at 250 g/ha (corn (Zea mays) [11]): 40%; pest or weed control at 15.625 g/ha [12]: 0%; pest or weed control at 62.5 g/ha [12]: 0%; pest or weed control at 250 g/ha [12]: 40%
